In PubChem BioAssay AID1259407 (Chemical Carcinogenesis Research Information System (CCRIS), 2018):
Activity calls are given as the source filed them. How the calls were made is not given here.

Test system: CCRIS mutagenicity, Ames/micronucleus/aberration tests
Experiment: CCRIS mutagenicity studies
[1] = Test System: AMES SALMONELLA TYPHIMURIUM, Strain/Indicator: TA100, Metabolic Activation: NONE, Method: PREINCUBATION

CC/C=C\C/C=C\C/C=C\CCCCCCCC(=O)O
mutagenic call (Test System: AMES SALMONELLA TYPHIMURIUM, Strain/Indicator: TA98, Metabolic Activation: HAMSTER, LIVER, S-9, AROCLOR 1254, Method: STANDARD PLATE): inactive; negative
mutagenic call (Test System: AMES SALMONELLA TYPHIMURIUM, Strain/Indicator: TA98, Metabolic Activation: NONE, Method: STANDARD PLATE): inactive; negative
mutagenic call (Test System: AMES SALMONELLA TYPHIMURIUM, Strain/Indicator: TA98, Metabolic Activation: RAT, LIVER, S-9, AROCLOR 1254, Method: STANDARD PLATE): inactive; negative
mutagenic call (Test System: AMES SALMONELLA TYPHIMURIUM, Strain/Indicator: TA100, Metabolic Activation: HAMSTER, LIVER, S-9, AROCLOR 1254, Method: STANDARD PLATE): inactive; negative
mutagenic call (Test System: AMES SALMONELLA TYPHIMURIUM, Strain/Indicator: TA100, Metabolic Activation: NONE, Method: STANDARD PLATE): inactive; negative
mutagenic call (Test System: AMES SALMONELLA TYPHIMURIUM, Strain/Indicator: TA100, Metabolic Activation: RAT, LIVER, S-9, AROCLOR 1254, Method: STANDARD PLATE): inactive; negative
mutagenic call (Test System: AMES SALMONELLA TYPHIMURIUM, Strain/Indicator: TA1535, Metabolic Activation: HAMSTER, LIVER, S-9, AROCLOR 1254, Method: STANDARD PLATE): inactive; negative
mutagenic call (Test System: AMES SALMONELLA TYPHIMURIUM, Strain/Indicator: TA1535, Metabolic Activation: NONE, Method: STANDARD PLATE): inactive; negative
mutagenic call (Test System: AMES SALMONELLA TYPHIMURIUM, Strain/Indicator: TA1535, Metabolic Activation: RAT, LIVER, S-9, AROCLOR 1254, Method: STANDARD PLATE): inactive; negative
mutagenic call (Test System: AMES SALMONELLA TYPHIMURIUM, Strain/Indicator: TA1537, Metabolic Activation: HAMSTER, LIVER, S-9, AROCLOR 1254, Method: STANDARD PLATE): inactive; negative
mutagenic call (Test System: AMES SALMONELLA TYPHIMURIUM, Strain/Indicator: TA1537, Metabolic Activation: NONE, Method: STANDARD PLATE): inactive; negative
mutagenic call (Test System: AMES SALMONELLA TYPHIMURIUM, Strain/Indicator: TA1537, Metabolic Activation: RAT, LIVER, S-9, AROCLOR 1254, Method: STANDARD PLATE): inactive; negative
mutagenic call (Test System: AMES SALMONELLA TYPHIMURIUM, Strain/Indicator: TA1538, Metabolic Activation: HAMSTER, LIVER, S-9, AROCLOR 1254, Method: STANDARD PLATE): inactive; negative
mutagenic call (Test System: AMES SALMONELLA TYPHIMURIUM, Strain/Indicator: TA1538, Metabolic Activation: NONE, Method: STANDARD PLATE): inactive; negative
mutagenic call (Test System: AMES SALMONELLA TYPHIMURIUM, Strain/Indicator: TA1538, Metabolic Activation: RAT, LIVER, S-9, AROCLOR 1254, Method: STANDARD PLATE): inactive; negative
mutagenic call (Test System: MOUSE LYMPHOMA, Strain/Indicator: L5178Y (TK+/TK-), Metabolic Activation: NONE, Method: SUSPENSION/PLATE): inactive; negative. reevaluation of results: inconclusive
mutagenic call (Test System: MOUSE LYMPHOMA, Strain/Indicator: L5178Y (TK+/TK-), Metabolic Activation: RAT, LIVER, S-9, AROCLOR 1254, Method: SUSPENSION/PLATE): inactive; negative. reevaluation of results: negative

ClC1=C(Cl)[C@]2(Cl)C3C(Cl)C(Cl)CC3[C@@]1(Cl)C2(Cl)Cl (stereo partly specified)
mutagenic call (Test System: AMES SALMONELLA TYPHIMURIUM, Strain/Indicator: TA100, Metabolic Activation: NONE, Method: DESICCATOR): active; positive

O=C=Nc1ccc(Cc2ccc(N=C=O)cc2)cc1
mutagenic call (Test System: AMES SALMONELLA TYPHIMURIUM, Strain/Indicator: TA98, Metabolic Activation: HAMSTER, LIVER, S-9, AROCLOR 1254 (10%), Method: PREINCUBATION): inactive; negative
mutagenic call (Test System: AMES SALMONELLA TYPHIMURIUM, Strain/Indicator: TA98, Metabolic Activation: NONE, Method: PREINCUBATION): inactive; negative
mutagenic call (Test System: AMES SALMONELLA TYPHIMURIUM, Strain/Indicator: TA98, Metabolic Activation: RAT, LIVER, S-9, AROCLOR 1254 (10%), Method: PREINCUBATION): inactive; negative
mutagenic call (Test System: AMES SALMONELLA TYPHIMURIUM, Strain/Indicator: TA98, Metabolic Activation: RAT, LIVER, S-9, KC 500, Method: PREINCUBATION): inactive; negative
mutagenic call (Test System: AMES SALMONELLA TYPHIMURIUM, Strain/Indicator: TA100, Metabolic Activation: HAMSTER, LIVER, S-9, AROCLOR 1254 (10%), Method: PREINCUBATION): inactive; negative
mutagenic call [1]: inactive; negative
mutagenic call (Test System: AMES SALMONELLA TYPHIMURIUM, Strain/Indicator: TA100, Metabolic Activation: RAT, LIVER, S-9, AROCLOR 1254 (10%), Method: PREINCUBATION): inactive; negative
mutagenic call (Test System: AMES SALMONELLA TYPHIMURIUM, Strain/Indicator: TA100, Metabolic Activation: RAT, LIVER, S-9, KC 500, Method: PREINCUBATION): active; positive
mutagenic call (Test System: AMES SALMONELLA TYPHIMURIUM, Strain/Indicator: TA1535, Metabolic Activation: HAMSTER, LIVER, S-9, AROCLOR 1254 (10%), Method: PREINCUBATION): inactive; negative
mutagenic call (Test System: AMES SALMONELLA TYPHIMURIUM, Strain/Indicator: TA1535, Metabolic Activation: NONE, Method: PREINCUBATION): inactive; negative
mutagenic call (Test System: AMES SALMONELLA TYPHIMURIUM, Strain/Indicator: TA1535, Metabolic Activation: RAT, LIVER, S-9, AROCLOR 1254 (10%), Method: PREINCUBATION): inactive; negative
mutagenic call (Test System: AMES SALMONELLA TYPHIMURIUM, Strain/Indicator: TA1535, Metabolic Activation: RAT, LIVER, S-9, KC 500, Method: PREINCUBATION): inactive; negative
mutagenic call (Test System: AMES SALMONELLA TYPHIMURIUM, Strain/Indicator: TA1537, Metabolic Activation: HAMSTER, LIVER, S-9, AROCLOR 1254 (10%), Method: PREINCUBATION): inactive; negative
mutagenic call (Test System: AMES SALMONELLA TYPHIMURIUM, Strain/Indicator: TA1537, Metabolic Activation: NONE, Method: PREINCUBATION): inactive; negative
mutagenic call (Test System: AMES SALMONELLA TYPHIMURIUM, Strain/Indicator: TA1537, Metabolic Activation: RAT, LIVER, S-9, AROCLOR 1254 (10%), Method: PREINCUBATION): inactive; negative
mutagenic call (Test System: AMES SALMONELLA TYPHIMURIUM, Strain/Indicator: TA1537, Metabolic Activation: RAT, LIVER, S-9, KC 500, Method: PREINCUBATION): inactive; negative
mutagenic call (Test System: AMES SALMONELLA TYPHIMURIUM, Strain/Indicator: TA1538, Metabolic Activation: NONE, Method: PREINCUBATION): inactive; negative
mutagenic call (Test System: AMES SALMONELLA TYPHIMURIUM, Strain/Indicator: TA1538, Metabolic Activation: RAT, LIVER, S-9, KC 500, Method: PREINCUBATION): inactive; negative
mutagenic call (Test System: E. COLI, Strain/Indicator: WP2 UVRA, Metabolic Activation: NONE, Method: PREINCUBATION): inactive; negative
mutagenic call (Test System: E. COLI, Strain/Indicator: WP2 UVRA, Metabolic Activation: RAT, LIVER, S-9, KC 500, Method: PREINCUBATION): inactive; negative

NCCS
mutagenic call (End Point: IN VIVO MICRONUCLEUS, Test System: BONE MARROW POLYCHROMATIC ERYTHROCYTES, Species: MOUSE, Strain/Sex: SWISS/FEMALE, Route: IP): inactive; negative
mutagenic call [1]: inactive; negative
mutagenic call (Test System: Ames Salmonella typhimurium, Strain/Indicator: TA98, Metabolic Activation: None, Method: Preincubation): inactive; negative
mutagenic call (Test System: Ames Salmonella typhimurium, Strain/Indicator: TA98, Metabolic Activation: Rat, Liver, S9, Sodium phenobarbital and 5,6-benzoflavone (10%), Method: Preincubation): inactive; negative
mutagenic call (Test System: Ames Salmonella typhimurium, Strain/Indicator: TA100, Metabolic Activation: None, Method: Preincubation): inactive; negative
mutagenic call (Test System: Ames Salmonella typhimurium, Strain/Indicator: TA100, Metabolic Activation: Rat, Liver, S9, Sodium phenobarbital and 5,6-benzoflavone (10%), Method: Preincubation): inactive; negative
mutagenic call (Test System: Ames Salmonella typhimurium, Strain/Indicator: TA1535, Metabolic Activation: None, Method: Preincubation): inactive; negative
mutagenic call (Test System: Ames Salmonella typhimurium, Strain/Indicator: TA1535, Metabolic Activation: Rat, Liver, S9, Sodium phenobarbital and 5,6-benzoflavone (10%), Method: Preincubation): inactive; negative
mutagenic call (Test System: Ames Salmonella typhimurium, Strain/Indicator: TA1537, Metabolic Activation: None, Method: Preincubation): inactive; negative
mutagenic call (Test System: Ames Salmonella typhimurium, Strain/Indicator: TA1537, Metabolic Activation: Rat, Liver, S9, Sodium phenobarbital and 5,6-benzoflavone (10%), Method: Preincubation): inactive; negative
mutagenic call (Test System: E. coli, Strain/Indicator: WP2uvrA/pKM101, Metabolic Activation: Rat, Liver, S9, Sodium phenobarbital and 5,6-benzoflavone (10%), Method: Preincubation): inactive; negative

CCCCCCCCCCCCN
mutagenic call (End Point: In vitro Chromosomal aberrations, Test System: CHO Cells, Metabolic Activation: None): inactive; negative; cytotoxic at 12 and 18 ug/ml
mutagenic call (End Point: In vitro Chromosomal aberrations, Test System: CHO Cells, Metabolic Activation: Rodent S-9): inactive; negative; cytotoxic at 12 and 18 ug/ml
